Patent publication US20230331731A1, “CRYSTAL FORM OF PYRROLO HETEROCYCLIC DERIVATIVE AND PREPARATION METHOD THEREFOR” (Jiangsu Hengrui Pharmaceuticals Co., Ltd., priority 2020, published 2023)
One block for each molecule: values may come before it.

Tests used:
[1] = Influencing factor stability study; type: physicochemical; settings: for physical and chemical stability (conclusion): high-temperature conditions (40° C. and 60° C.) and high-humidity conditions (75% and 92.5%)
[2] = Long-term/accelerated stability study; type: physicochemical; settings: for physical and chemical stability (conclusion): long-term and accelerated stability conditions; for Purity, 1 month / physical and chemical stability (conclusion) / Crystal form: 1 month
Protocol: 1. The hydrobromide in crystal form α was left to stand under 25° C., 60% RH conditions and 40° C., 75% RH conditions to investigate its stability.
4. The fumarate in crystal form II was subjected to 6-month long-term (25° C., 60% RH) and accelerated (40° C., 75% RH) stability studies.

- Color and appearance ([1]; 40° C., open, 7 days): Pale yellow solid
- Crystal form ([1]; 40° C., open, 7 days): Did not change
- Main peak purity ([1]; 40° C., open, 7 days): 99.46%
- Color and appearance ([1]; 40° C., open, 14 days): Pale yellow solid
- Crystal form ([1]; 40° C., open, 14 days): Did not change
- Main peak purity ([1]; 40° C., open, 14 days): 99.47%
- Color and appearance ([1]; 40° C., open, 30 days): Pale yellow solid
- Crystal form ([1]; 40° C., open, 30 days): Did not change
- Main peak purity ([1]; 40° C., open, 30 days): 99.26%
- Color and appearance ([1]; 60° C., open, 7 days): Pale yellow solid
- Crystal form ([1]; 60° C., open, 7 days): Did not change
- Main peak purity ([1]; 60° C., open, 7 days): 99.45%
- Color and appearance ([1]; 60° C., open, 14 days): Pale yellow solid
- Crystal form ([1]; 60° C., open, 14 days): Did not change
- Main peak purity ([1]; 60° C., open, 14 days): 99.46%
- Color and appearance ([1]; 60° C., open, 30 days): Pale yellow solid
- Crystal form ([1]; 60° C., open, 30 days): Did not change
- Main peak purity ([1]; 60° C., open, 30 days): 99.23%
- Color and appearance ([1]; 75% RH, open, 7 days): Pale yellow solid
- Crystal form ([1]; 75% RH, open, 7 days): Did not change
- Main peak purity ([1]; 75% RH, open, 7 days): 99.52%
- Color and appearance ([1]; 75% RH, open, 14 days): Pale yellow solid
- Crystal form ([1]; 75% RH, open, 14 days): Did not change
- Main peak purity ([1]; 75% RH, open, 14 days): 99.43%
- Color and appearance ([1]; 75% RH, open, 30 days): Pale yellow solid
- Crystal form ([1]; 75% RH, open, 30 days): Did not change
- Main peak purity ([1]; 75% RH, open, 30 days): 99.36%
- Color and appearance ([1]; 92.5% RH, open, 7 days): Pale yellow solid
- Crystal form ([1]; 92.5% RH, open, 7 days): Did not change
- Main peak purity ([1]; 92.5% RH, open, 7 days): 99.47%
- Color and appearance ([1]; 92.5% RH, open, 14 days): Pale yellow solid
- Crystal form ([1]; 92.5% RH, open, 14 days): Did not change
- Main peak purity ([1]; 92.5% RH, open, 14 days): 99.45%
- Color and appearance ([1]; 92.5% RH, open, 30 days): Pale yellow solid
- Crystal form ([1]; 92.5% RH, open, 30 days): Did not change
- Main peak purity ([1]; 92.5% RH, open, 30 days): 99.40%
- Color and appearance ([1]; 4500 Lux, open, 7 days): Pale yellow solid
- Crystal form ([1]; 4500 Lux, open, 7 days): Did not change
- Main peak purity ([1]; 4500 Lux, open, 7 days): 99.43%
- Color and appearance ([1]; 4500 Lux, open, 14 days): Pale yellow solid
- Crystal form ([1]; 4500 Lux, open, 14 days): Did not change
- Main peak purity ([1]; 4500 Lux, open, 14 days): 99.29%
- Color and appearance ([1]; 4500 Lux, open, 30 days): Pale yellow solid
- Crystal form ([1]; 4500 Lux, open, 30 days): Did not change
- Main peak purity ([1]; 4500 Lux, open, 30 days): 99.19%
- Color and appearance ([1]; Initial, 0 days): Pale yellow solid
- Crystal form ([1]; Initial, 0 days): Crystal form IV
- Main peak purity ([1]; Initial, 0 days): 99.47%
- Purity, 1 month ([2]; 25° C., 60%RH): 99.40%
- Purity, 1 month ([2]; 40° C., 75%RH): 99.34%
- Purity, Initial [2]: 99.46%
- physical and chemical stability (conclusion) [2]: good physical and chemical stability
Compound: Cn1nccc1Nc1nccc(-c2cc3n(c2)C(=O)N([C@H](CO)c2cccc(Cl)c2)C3)n1.Cn1nccc1Nc1nccc(-c2cc3n(c2)C(=O)N([C@H](CO)c2cccc(Cl)c2)C3)n1.O=C(O)/C=C/C(=O)O [Fumarate in crystal form IV]
- physical and chemical stability (conclusion) ([1]; 30 days): relatively good physical and chemical stability

- Color and appearance ([1]; 40° C., open, 7 days): Off-white solid
- Crystal form ([1]; 40° C., open, 7 days): Did not change
- Main peak purity ([1]; 40° C., open, 7 days): 99.42%
- Color and appearance ([1]; 40° C., open, 14 days): Off-white solid
- Crystal form ([1]; 40° C., open, 14 days): Did not change
- Main peak purity ([1]; 40° C., open, 14 days): 99.32%
- Color and appearance ([1]; 40° C., open, 30 days): Off-white solid
- Crystal form ([1]; 40° C., open, 30 days): Did not change
- Main peak purity ([1]; 40° C., open, 30 days): 99.28%
- Color and appearance ([1]; 60° C., open, 7 days): Off-white solid
- Crystal form ([1]; 60° C., open, 7 days): Did not change
- Main peak purity ([1]; 60° C., open, 7 days): 99.38%
- Color and appearance ([1]; 60° C., open, 14 days): Off-white solid
- Crystal form ([1]; 60° C., open, 14 days): Did not change
- Main peak purity ([1]; 60° C., open, 14 days): 98.99%
- Color and appearance ([1]; 60° C., open, 30 days): Off-white solid
- Crystal form ([1]; 60° C., open, 30 days): Did not change
- Main peak purity ([1]; 60° C., open, 30 days): 99.02%
- Color and appearance ([1]; 75% RH, open, 7 days): Off-white solid
- Crystal form ([1]; 75% RH, open, 7 days): Did not change
- Main peak purity ([1]; 75% RH, open, 7 days): 99.41%
- Color and appearance ([1]; 75% RH, open, 14 days): Off-white solid
- Crystal form ([1]; 75% RH, open, 14 days): Did not change
- Main peak purity ([1]; 75% RH, open, 14 days): 99.30%
- Color and appearance ([1]; 75% RH, open, 30 days): Off-white solid
- Crystal form ([1]; 75% RH, open, 30 days): Did not change
- Main peak purity ([1]; 75% RH, open, 30 days): 99.31%
- Color and appearance ([1]; 92.5% RH, open, 7 days): Off-white solid
- Crystal form ([1]; 92.5% RH, open, 7 days): Did not change
- Main peak purity ([1]; 92.5% RH, open, 7 days): 99.39%
- Color and appearance ([1]; 92.5% RH, open, 14 days): Off-white solid
- Crystal form ([1]; 92.5% RH, open, 14 days): Did not change
- Main peak purity ([1]; 92.5% RH, open, 14 days): 99.42%
- Color and appearance ([1]; 92.5% RH, open, 30 days): Off-white solid
- Crystal form ([1]; 92.5% RH, open, 30 days): Did not change
- Main peak purity ([1]; 92.5% RH, open, 30 days): 99.28%
- Color and appearance ([1]; 4500 Lux, open, 7 days): Off-white solid
- Crystal form ([1]; 4500 Lux, open, 7 days): Did not change
- Main peak purity ([1]; 4500 Lux, open, 7 days): 99.09%
- Color and appearance ([1]; 4500 Lux, open, 14 days): Off-white solid
- Crystal form ([1]; 4500 Lux, open, 14 days): Did not change
- Main peak purity ([1]; 4500 Lux, open, 14 days): 98.94%
- Color and appearance ([1]; 4500 Lux, open, 30 days): Off-white solid
- Crystal form ([1]; 4500 Lux, open, 30 days): Did not change
- Main peak purity ([1]; 4500 Lux, open, 30 days): 98.50%
- Crystal form ([2]; 25° C., 60%RH): α
- Purity, 1 month ([2]; 25° C., 60%RH): 99.33%
- Crystal form ([2]; 40° C., 75%RH): α
- Purity, 1 month ([2]; 40° C., 75%RH): 99.24%
- Purity, Initial [2]: 99.43%
- physical and chemical stability (conclusion) [2]: good physical and chemical stability
Compound: Br.Cn1nccc1Nc1nccc(-c2cc3n(c2)C(=O)N([C@H](CO)c2cccc(Cl)c2)C3)n1 [Hydrobromide in crystal form α]
- physical and chemical stability (conclusion) ([1]; 30 days): relatively good physical and chemical stability

- Color and appearance ([1]; 40° C., open, 7 days): Off-white solid
- Crystal form ([1]; 40° C., open, 7 days): Did not change
- Main peak purity ([1]; 40° C., open, 7 days): 99.13%
- Color and appearance ([1]; 40° C., open, 14 days): Off-white solid
- Crystal form ([1]; 40° C., open, 14 days): Did not change
- Main peak purity ([1]; 40° C., open, 14 days): 99.07%
- Color and appearance ([1]; 40° C., open, 30 days): Off-white solid
- Crystal form ([1]; 40° C., open, 30 days): Did not change
- Main peak purity ([1]; 40° C., open, 30 days): 98.96%
- Color and appearance ([1]; 60° C., open, 7 days): Off-white solid
- Crystal form ([1]; 60° C., open, 7 days): Did not change
- Main peak purity ([1]; 60° C., open, 7 days): 98.82%
- Color and appearance ([1]; 60° C., open, 14 days): Off-white solid
- Crystal form ([1]; 60° C., open, 14 days): Did not change
- Main peak purity ([1]; 60° C., open, 14 days): 98.82%
- Color and appearance ([1]; 60° C., open, 30 days): Off-white solid
- Crystal form ([1]; 60° C., open, 30 days): Did not change
- Main peak purity ([1]; 60° C., open, 30 days): 98.88%
- Color and appearance ([1]; 75% RH, open, 7 days): Off-white solid
- Crystal form ([1]; 75% RH, open, 7 days): Did not change
- Main peak purity ([1]; 75% RH, open, 7 days): 99.13%
- Color and appearance ([1]; 75% RH, open, 14 days): Off-white solid
- Crystal form ([1]; 75% RH, open, 14 days): Did not change
- Main peak purity ([1]; 75% RH, open, 14 days): 99.11%
- Color and appearance ([1]; 75% RH, open, 30 days): Off-white solid
- Crystal form ([1]; 75% RH, open, 30 days): Did not change
- Main peak purity ([1]; 75% RH, open, 30 days): 99.11%
- Color and appearance ([1]; 92.5% RH, open, 7 days): Off-white solid
- Crystal form ([1]; 92.5% RH, open, 7 days): Did not change
- Main peak purity ([1]; 92.5% RH, open, 7 days): 99.09%
- Color and appearance ([1]; 92.5% RH, open, 14 days): Off-white solid
- Crystal form ([1]; 92.5% RH, open, 14 days): Did not change
- Main peak purity ([1]; 92.5% RH, open, 14 days): 99.15%
- Color and appearance ([1]; 92.5% RH, open, 30 days): Off-white solid
- Crystal form ([1]; 92.5% RH, open, 30 days): Did not change
- Main peak purity ([1]; 92.5% RH, open, 30 days): 98.93%
- Color and appearance ([1]; 4500 Lux, open, 7 days): Off-white solid
- Crystal form ([1]; 4500 Lux, open, 7 days): Did not change
- Main peak purity ([1]; 4500 Lux, open, 7 days): 98.99%
- Color and appearance ([1]; 4500 Lux, open, 14 days): Off-white solid
- Crystal form ([1]; 4500 Lux, open, 14 days): Did not change
- Main peak purity ([1]; 4500 Lux, open, 14 days): 98.54%
- Color and appearance ([1]; 4500 Lux, open, 30 days): Off-white solid
- Crystal form ([1]; 4500 Lux, open, 30 days): Did not change
- Main peak purity ([1]; 4500 Lux, open, 30 days): 98.28%
- Color and appearance ([1]; Initial, 0 days): Off-white solid
- Crystal form ([1]; Initial, 0 days): Crystal form β
- Main peak purity ([1]; Initial, 0 days): 99.12%
- Crystal form ([2]; 25° C., 60%RH): β
- Purity, 1 month ([2]; 25° C., 60%RH): 98.99%
- Crystal form ([2]; 40° C., 75%RH): β
- Purity, 1 month ([2]; 40° C., 75%RH): 99.00%
- Purity, Initial [2]: 99.17%
- physical and chemical stability (conclusion) [2]: good physical and chemical stability
Compound: Br.Br.Cn1nccc1Nc1nccc(-c2cc3n(c2)C(=O)N([C@H](CO)c2cccc(Cl)c2)C3)n1 [Hydrobromide in crystal form β]
- physical and chemical stability (conclusion) ([1]; 30 days): relatively good physical and chemical stability
